This note sets out measurements from article PMC12844237, “A Novel Quinolone JH62 (E-2-(Tridec-4-en-1-yl)-quinolin-4(1H)-one) from Pseudomonas aeruginosa Exhibits Potent Anticancer Activity” (Microorganisms, 2025).

For one series, the system named is A549 cells. The series can be described thus: DNA fragmentation analysis (genomic DNA electrophoresis). It counts as cell-based, human. The settings on record: A549, 24 h; JH62 5–100 µM, DOX 1 and 5 μM. As to the method: Genomic DNA fragmentation was analyzed by agarose gel electrophoresis using previously described methods. A549 cells were seeded in 6 cm tissue culture dishes and cultured overnight. Before treatment with JH62 or DOX, the cells were cultured in DMEM lacking FBS for 16 h. After treatment, the cells were then washed three times with PBS and genomic DNA was extracted using a MasterPure™ DNA Purification Kit (Lucigen Corporation, Middleton, WI, USA). The DNA pellet was airdried and resuspended in Tris-HCl (pH 8.0, 10 mM). DNA samples (2.5 μg) were separated by 1% agarose gel electrophoresis in TAE buffer containing ethidium bromide.

The subject of series [1] is HEP3B: human hepatoma cell lines. Kind of series: WST-1 cell viability, HEP3B. The settings on record: HEP3B (liver) cancer cell line. It is filed as cell-based. From the text: (§1) Different cells were utilized as follows: MEF: murine embryonic fibroblast (RRID: CVCL_L690); AML12: mouse liver cell lines (RRID: CVCL_0140); WI-38: human lung fibroblast cell lines (RRID: CVCL_0579); THLE-2: human liver epithelial cell lines (RRID: CVCL_3803); A549: human lung cancer cell lines (RRID: CVCL_0023); HEPG2: human liver cancer cell lines (RRID: CVCL_0027); HEP3B: human hepatoma cell lines (RRID: CVCL_0326); BxPC3: human pancreatic cancer cell lines (RRID: CVCL_0186); U87: human primary glioblastoma cell lines (RRID: CVCL_0022); DU145: human prostate cancer cell lines (RRID: CVCL_0105); MCF7: human breast cancer cell lines (RRID: CVCL_0031); HeLa: human cervical cancer cell lines (RRID: CVCL_0030); HCT116: human colon cancer cell lines (RRID: CVCL_0291). Cells were maintained in Dulbecco’s modified Eagle’s medium (DMEM, Gibco) supplemented with L-glutamine (Lonza) (2 mM), 10% fetal bovine serum (FBS, Hyclone), 1 × non-essential amino acids, and sodium pyruvate (1 mM). THLE-2 cells were maintained in THLE-2 Cell Complete Medium (Zhong Qiao Xin Zhou, Shanghai, China). Cells were incubated at 37 °C in a humidified incubator with 5% CO2. […]
(§2) Cell viability was assessed using the WST-1 assay, based on a previously reported method with slight modifications. […] Absorbance at OD450 was measured using a microplate reader (Synergy H1; BioTek Instruments, Winooski, VT, USA).
(In general: Tetrazolium dyes change colour on reduction, which living cells bring about.)

For series [2], the system named is pqs gene cluster in ΔpqsA mutant strain. Kind of series: Effect of exogenous JH62 on transcription of the pqs gene cluster. It is filed as cell-based, Pseudomonas aeruginosa. The settings on record: ΔpqsA mutant supplemented with exogenous JH62. From the text:
Since the pqs gene cluster is responsible for JH62 biosynthesis, we determined whether JH62 itself could regulate the expression of this cluster, potentially establishing a feedback loop. To this end, we supplemented the JH62-deficient ΔpqsA mutant with exogenous JH62 and assessed the pqs cluster transcription.

The test system of the next series is A549 lung cancer cells. Kind of series: Cell death inhibitor rescue (zVAD-fmk, Nec-1). It is filed as cell-based, human. The settings on record: A549, zVAD-fmk and Nec-1 individually or in combination. From the text: Therefore, we investigated whether zVAD-fmk and Nec-1 could attenuate JH62-induced cell death in A549 lung cancer cells.
The subject of series [3] is HCT116: human colon cancer cell lines. Kind of series: WST-1 cell viability, HCT116. The settings on record: HCT-116, HCT116 (colon) cancer cell line. It counts as cell-based.
Excerpt: as §1, §2

Series [4] concerns A549 injected xenograft mouse model. The series can be described thus: Tumorigenicity assay, xenograft mouse model. It counts as in vivo, BALB/c nude mice. Here is the method:
Tumorigenicity assays were performed using BALB/c nude mice, adapted from previously described protocols with slight modifications. To establish the xenograft cancer model, cancer cells (1 × 10^6) were subcutaneously injected into the right dorsal side of 6-week-old male BALB/c nude mice to induce tumor formation. The mice were randomly divided into 2 groups (n = 15). One group served as the control, and the other groups were treated with JH62 at doses of 10 mg/kg, via intraperitoneal injection twice a week. The mice in the control group were administered an equal volume of DMSO as the solvent control. The tumor sizes were measured weekly for three weeks. After that, the mice were sacrificed, and the tumors were isolated and weighed. All animal studies were approved by the Ethics Committee of South China Agricultural University.
To evaluate the efficacy of JH62 in inhibiting tumorigenesis in vivo, a cancer xenograft model was established by transplanting cancer cells into the right flank of nude mice. The mice were treated with JH62 (10 mg/kg body weight) twice weekly for three weeks, and tumor volume changes were regularly monitored during this period. […] After 20 days of treatment, the average weight of solid tumors in the JH62-treated group was 186.3 mg, compared to 693.4 mg in the control group. The average tumor size in the control group was approximately 900 mm^3, while in the JH62-treated group, it was only about 190 mm^3 (Figure 2H,I).

Series [5] relates to HeLa: human cervical cancer cell lines. Kind of series: WST-1 cell viability, HeLa. The settings on record: HeLa (cervical) cancer cell line. It counts as cell-based.
Excerpt: as §1, §2

For orientation: IC50 means the concentration at which inhibition is half-maximal.

Take `CCCCCCCC/C=C/CCCc1cc(=O)c2ccccc2[nH]1` [JH62, E-2-(tridec-4-en-1-yl)-quinolin-4(1H)-one]: the “genomic DNA integrity (electrophoresis)” value in the series with A549 cells is reported as “genomic DNA integrity remained unchanged”. Also, the results for the IC50 in series [1], in series [3] and in series [5] were 10.8 ± 0.4 µM, 8.6 ± 0.1 µM and 13.6 ± 2.7 µM, respectively. In series [2], the pqsH transcription entry was “unaffected”. Besides, in series [2], the “transcription of pqsA, pqsB, pqsC, pqsD, and pqsE” value is reported as “markedly upregulated”. Further, in the series on A549 lung cancer cells, the “cell death type (reversal by zVAD-fmk and Nec-1)” value is “not associated with apoptosis or necroptosis”. For the same compound, the “average weight of solid tumors” value in series [4] (10 mg/kg intraperitoneal twice weekly, after 20 days of treatment, control 693.4 mg) is 186.3 mg. Also, the average tumor size result in series [4] (10 mg/kg intraperitoneal twice weekly, three weeks, control approximately 900 mm^3) was “about 190 mm^3”. The reduced tumor volume in series [4] (xenograft mice, 10 mg/kg) is 79%. This compound also came in with a reduced tumor weight in series [4] (xenograft mice, 10 mg/kg) of 73%.
